# From ChEMBL document CHEMBL1201862, “PubChem BioAssay data set” (2004)
#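 Tested at 5 concentrations; 48 h exposure; 96-well plates; endpoints linearly interpolated, else capped at highest concentration. GI50 = concentration required for 50% inhibition of growth.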 Activity calls are given as the source filed them. Cut-off read from the data, not from the text of the source: active = GI50 up to about 1.1 µM and inactive = higher.
# Columns and labels:
# Assay in all cases: NCI anticancer screen, dose series, 48 h
# DU-145 = test system: DU-145
# SR = test system: SR
# EKVX = test system: EKVX
# HCT-15 = test system: HCT-15
# ACHN = test system: ACHN
# UACC-257 = test system: UACC-257
# Malme-3M = test system: Malme-3M
# MOLT-4 = test system: MOLT-4
# SF-268 = test system: SF-268
# UACC-62 = test system: UACC-62
# SF-295 = test system: SF-295
# SK-OV-3 = test system: SK-OV-3
# SF-539 = test system: SF-539
# PC-3 = test system: PC-3
# SK-MEL-28 = test system: SK-MEL-28
# MDA-MB-435 = test system: MDA-MB-435
# MDA-N = test system: MDA-N
# NCI-H522 = test system: NCI-H522
# A498 = test system: A498
# MDA-MB-231 = test system: MDA-MB-231
SMILES,GI50 (DU-145),GI50 (SR),GI50 (EKVX),GI50 (HCT-15),GI50 (ACHN),GI50 (UACC-257),GI50 (Malme-3M),GI50 (MOLT-4),GI50 (SF-268),GI50 (UACC-62),GI50 (SF-295),GI50 (SK-OV-3),GI50 (SF-539),GI50 (PC-3),GI50 (SK-MEL-28),GI50 (MDA-MB-435),GI50 (MDA-N),GI50 (NCI-H522),GI50 (A498),GI50 (MDA-MB-231)
Cc1ccc(C)n2c1nc1cc3ccccc3cc12,51.9 µM (inactive),43.4 µM (inactive),64.6 µM (inactive),4.92 µM,29.6 µM (inactive),49.2 µM (inactive),50.1 µM (inactive),23.3 µM (inactive),64 µM (inactive),18.8 µM (inactive),42.3 µM (inactive),32.4 µM (inactive),30.7 µM (inactive),32.4 µM (inactive),45 µM (inactive),44.8 µM (inactive),38.6 µM (inactive),,,
N#Cc1c(N2CCCC2)ncn(Cc2ccccc2)c1=O,> 100 µM (inactive),> 100 µM (inactive),> 100 µM (inactive),> 100 µM,> 100 µM (inactive),> 100 µM (inactive),> 100 µM (inactive),> 100 µM (inactive),> 100 µM (inactive),> 100 µM (inactive),> 100 µM (inactive),> 100 µM (inactive),> 100 µM (inactive),> 100 µM (inactive),> 100 µM (inactive),> 100 µM (inactive),> 100 µM (inactive),> 100 µM (inactive),> 100 µM (inactive),
CC1(C)O[C@@H]2[C@@H](COC(=O)c3ccccc3)C[C@@H](C#N)[C@@H]2O1,> 100 µM (inactive),> 100 µM (inactive),,> 100 µM,> 100 µM (inactive),,> 100 µM (inactive),> 100 µM (inactive),> 100 µM (inactive),> 100 µM (inactive),> 100 µM (inactive),> 100 µM (inactive),> 100 µM (inactive),> 100 µM (inactive),> 100 µM (inactive),> 100 µM (inactive),,> 100 µM (inactive),> 100 µM (inactive),> 100 µM (inactive)
COc1cc2c(cc1OCCCOc1cc(-c3ccc(F)cc3)nc(C)n1)N=C[C@@H]1CCCN1C2=O,9.06 µM (inactive),10.4 µM (inactive),18.9 µM (inactive),12.6 µM,16.1 µM (inactive),17.3 µM (inactive),12.8 µM (inactive),14.3 µM (inactive),17.2 µM (inactive),14.5 µM (inactive),16.4 µM (inactive),25.6 µM (inactive),16.6 µM (inactive),,20.7 µM (inactive),15.2 µM (inactive),,14.6 µM (inactive),12.7 µM (inactive),13.8 µM (inactive)
COC1C=COC2(C)Oc3c(C)c(O)c4c(O)c(c(C5SCCS5)c(O)c4c3C2=O)NC(=O)C(C)=C/C=C\C(C)C2OC(C)(C)OC(C2C)C(C)C(OC(C)=O)C1C (centres undefined),8.93 µM (inactive),,,5.6 µM,3.15 µM (inactive),2.74 µM (inactive),11.5 µM (inactive),3.83 µM (inactive),7.33 µM (inactive),4.02 µM (inactive),5.32 µM (inactive),17.1 µM (inactive),12.9 µM (inactive),5.31 µM (inactive),23.5 µM (inactive),4.79 µM (inactive),,5.02 µM (inactive),12.3 µM (inactive),13.6 µM (inactive)
CCCCCCCCCCCCCCCCCCNc1ccn(C2OC(COP(=O)(O)O)C(O)C2O)c(=O)n1 (centres undefined),> 100 µM (inactive),,> 100 µM (inactive),> 100 µM,> 100 µM (inactive),> 100 µM (inactive),,> 100 µM (inactive),> 100 µM (inactive),> 100 µM (inactive),> 100 µM (inactive),> 100 µM (inactive),> 100 µM (inactive),> 100 µM (inactive),> 100 µM (inactive),> 100 µM (inactive),,> 100 µM (inactive),> 100 µM (inactive),> 100 µM (inactive)
C=CCNC(=O)NC1=CSC2=NC(=O)C3(NN12)c1ccccc1-c1ccccc13,> 10 µM (inactive),> 10 µM (inactive),> 10 µM (inactive),> 10 µM,> 10 µM (inactive),> 10 µM (inactive),> 10 µM (inactive),> 10 µM (inactive),> 10 µM (inactive),> 10 µM (inactive),> 10 µM (inactive),> 10 µM (inactive),> 10 µM (inactive),> 10 µM (inactive),> 10 µM (inactive),> 10 µM (inactive),,> 10 µM (inactive),,> 10 µM (inactive)
N#CCCC1(CCC#N)CCCCCCCCC(CCC#N)(CCC#N)C(=O)C1=O,> 100 µM (inactive),> 100 µM (inactive),> 100 µM (inactive),> 100 µM,> 100 µM (inactive),55.6 µM (inactive),> 100 µM (inactive),,> 100 µM (inactive),> 100 µM (inactive),> 100 µM (inactive),> 100 µM (inactive),44.6 µM (inactive),> 100 µM (inactive),> 100 µM (inactive),> 100 µM (inactive),> 100 µM (inactive),5.81 µM (inactive),,
Cc1ccc(C(=O)O)cc1NC(=O)c1cc(/C=C/c2ccccc2)[nH]c(=S)n1,,> 100 µM (inactive),> 100 µM (inactive),> 45 µM,> 89.9 µM (inactive),> 100 µM (inactive),> 100 µM (inactive),> 100 µM (inactive),> 100 µM (inactive),> 100 µM (inactive),> 100 µM (inactive),> 100 µM (inactive),> 100 µM (inactive),,> 100 µM (inactive),,,> 100 µM (inactive),> 100 µM (inactive),
C#CCNC(Cc1ccccc1)C(=O)O (centres undefined),> 100 µM (inactive),> 100 µM (inactive),> 100 µM (inactive),> 100 µM,> 100 µM (inactive),> 100 µM (inactive),> 100 µM (inactive),> 100 µM (inactive),> 100 µM (inactive),> 100 µM (inactive),> 100 µM (inactive),> 100 µM (inactive),,> 100 µM (inactive),> 100 µM (inactive),> 100 µM (inactive),,> 100 µM (inactive),> 100 µM (inactive),> 100 µM (inactive)
c1cc(-c2cn3ccsc3n2)ccn1,,65.9 µM (inactive),> 41.8 µM (inactive),> 44.2 µM,> 100 µM (inactive),> 100 µM (inactive),> 100 µM (inactive),> 100 µM (inactive),> 100 µM (inactive),> 100 µM (inactive),> 100 µM (inactive),> 100 µM (inactive),> 100 µM (inactive),,> 100 µM (inactive),,,> 100 µM (inactive),> 100 µM (inactive),
c1ccc2/c3[nH]/c(c2c1)=N\c1ccc(cc1)-c1nc2cc(ccc2o1)/N=c1/[nH]/c(c2ccccc12)=N/c1ccc2nc(oc2c1)-c1ccc(cc1)\N=3,> 100 µM (inactive),> 100 µM (inactive),> 100 µM (inactive),> 100 µM,> 100 µM (inactive),> 100 µM (inactive),,> 100 µM (inactive),> 100 µM (inactive),95.3 µM (inactive),> 100 µM (inactive),,,> 100 µM (inactive),> 100 µM (inactive),42.4 µM (inactive),> 100 µM (inactive),> 100 µM (inactive),> 100 µM (inactive),
